In patent EP4725941A1, “ARYLAMIDE DERIVATIVE HAVING ANTITUMOR ACTIVITY” (priority 2020, dated 2021):
Where two headings read alike, the source gives them in different places.

How the values were obtained:
BRAF = molecular target: T1, BRAF (Homo sapiens, UniProt P15056); assay: BRAF-inhibiting activity, time-resolved fluorescence-fluorescence resonance energy transfer assay; assay type: biochemical
T1 construct: purchased Eurofins Genomics KK; (BRAF); Thermo Fisher Scientific Inc. (MEK1)
Experimental: The BRAF-inhibiting activity of the compounds listed in Table 3 below was evaluated by the time-resolved fluorescence-fluorescence resonance energy transfer assay as described below.

MEK1 = molecular target: T2, MEK1 (Homo sapiens, UniProt Q02750); assay: MEK1-inhibiting activity, fluorescent polarization method (CRAF/MEK1/ERK2 cascade, IMAP); assay type: biochemical; conditions: Table 3; read-out: MEK1 IC50
T2 construct: purchased Thermo Fisher Scientific Inc. (MEK1, CRAF); Carna Biosciences, Inc. (ERK2)
T2 sequence (Q02750 whole entry): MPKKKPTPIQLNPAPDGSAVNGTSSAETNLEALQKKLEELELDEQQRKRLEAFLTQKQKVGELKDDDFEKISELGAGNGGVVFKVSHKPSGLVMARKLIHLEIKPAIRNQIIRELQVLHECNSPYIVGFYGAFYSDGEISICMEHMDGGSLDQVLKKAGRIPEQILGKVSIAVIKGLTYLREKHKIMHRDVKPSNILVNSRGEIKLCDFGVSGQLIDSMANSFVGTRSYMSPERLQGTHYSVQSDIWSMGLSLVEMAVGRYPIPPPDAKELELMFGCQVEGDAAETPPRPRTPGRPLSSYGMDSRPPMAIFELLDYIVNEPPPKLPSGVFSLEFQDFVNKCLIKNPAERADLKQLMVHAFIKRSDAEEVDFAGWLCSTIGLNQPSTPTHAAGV
Experimental: The MEK1-inhibiting activity of the compounds listed in Table 3 below were evaluated by the fluorescent polarization method as described below.

[1] = Human liver microsome stability; assay type: in vitro ADME; conditions: human liver microsomes, pH 7.4
NCI-H2122 = assay: Cell proliferation-inhibiting activity (ATP in viable cells, CellTiter-Glo), NCI-H2122; assay type: cell-based, human; conditions: human lung cancer cells, 4 days, read-out: NCI-H2122 IC50
A549 = assay: Cell proliferation-inhibiting activity (ATP in viable cells, CellTiter-Glo), A549; assay type: cell-based, human; conditions: human lung cancer cells, 4 days, read-out: A549 IC50

T1 sequence (P15056 417-766 limits assumed): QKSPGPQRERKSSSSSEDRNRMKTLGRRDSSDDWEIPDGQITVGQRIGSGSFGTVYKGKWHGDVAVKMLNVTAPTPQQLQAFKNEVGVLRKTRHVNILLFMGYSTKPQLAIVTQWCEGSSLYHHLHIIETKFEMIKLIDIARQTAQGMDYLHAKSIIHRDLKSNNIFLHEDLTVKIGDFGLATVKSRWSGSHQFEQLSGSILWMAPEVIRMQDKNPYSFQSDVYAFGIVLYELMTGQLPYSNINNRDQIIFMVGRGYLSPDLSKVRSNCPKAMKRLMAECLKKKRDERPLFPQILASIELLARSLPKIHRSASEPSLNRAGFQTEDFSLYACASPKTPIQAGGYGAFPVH

For `NC(=O)c1cc(Cc2ccnc(NS(=O)(=O)NC3CC3)c2F)c(F)cc1Nc1ccc(I)cc1F` [Compound I-3, 5-[[2-(Cyclopropylsulfamoylamino)-3-fluoropyridin-4-yl]methyl]-4-flu oro-2-(2-fluoro-4-iodoanilino)benzamide], the IC50 (BRAF; read-out: BRAF IC50; Table 3) was 2 nM, the IC50 (MEK1) was 55 nM and the microsomal CLint at 0.99 µM [1] was 16 µL/min/mg.

`CCS(=O)(=O)Nc1nccc(Cn2cc(C(=O)NOC)c(Nc3ccc(I)cc3F)c(C)c2=O)c1F` [Compound P-5] showed an IC50 (BRAF; read-out: BRAF IC50; Table 3) of 11 nM, an IC50 (MEK1) of 11 nM and a microsomal CLint at 0.99 µM [1] of 2 µL/min/mg. The IC50 (NCI-H2122; NCI-H2122, 96 h) was 31 nM.

`COCC1(NS(=O)(=O)Nc2nccc(Cc3cc(C(N)=O)c(Nc4ccc(I)cc4F)c(F)c3F)c2F)CC1` [Compound A-16] gave an IC50 (A549) of 14 nM, an IC50 (BRAF; Table 3; read-out: BRAF IC50) of 3 nM and an IC50 (MEK1) of 8 nM. The IC50 (NCI-H2122) was 3 nM.

In the case of `COCCNS(=O)(=O)Nc1nccc(Cc2cc(C(=O)NOC)c(Nc3ccc(I)cc3F)n(C)c2=O)c1F` [Compound J-9, 2-(2-Fluoro-4-iodoanilino)-5-[[3-fluoro-2-(2-methoxyethylsulfamoylamino)pyridin-4-yl]methyl]-N-methoxy-1-methyl-6-oxopyridine-3-carbox amide], the IC50 (BRAF; read-out: BRAF IC50; Table 3) is reported as 3 nM, the IC50 (MEK1) is reported as 64 nM and the microsomal CLint at 0.99 µM [1] is reported as 23 µL/min/mg. It also gave an IC50 (NCI-H2122; NCI-H2122, 96 h) of 17 nM.

Compound `CCCNS(=O)(=O)Nc1nccc(Cn2cc(C(N)=O)c(Nc3ccc(I)cc3F)c(F)c2=O)c1F` [Compound N-2, 5-Fluoro-4-(2-fluoro-4-iodoanilino)-1-[[3-fluoro-2-(propylsulfamoylamino)pyridin-4-yl]methyl]-6-oxopyridine-3-carboxamide] has an IC50 (BRAF; read-out: BRAF IC50; Table 3) of 1 nM, an IC50 (MEK1) of 1 nM and a microsomal CLint at 0.99 µM [1] of 11 µL/min/mg. For the same compound, the IC50 (NCI-H2122; NCI-H2122, 96 h) was 60 nM.

Compound `CNS(=O)(=O)Nc1cccc(Cc2cc(C(=O)NC3CC3)c(Nc3ccc(C4CC4)cc3F)c(F)c2F)c1F` [Compound D-15, N-Cyclopropyl-2-(4-cyclopropyl-2-fluoroanilino)-3,4-difluoro-5-[[2-fluoro-3-(methylsulfamoylamino)phenyl]methyl]benzamide] has an IC50 (BRAF; read-out: BRAF IC50; Table 3) of 17 nM, an IC50 (MEK1) of 1240 nM and a microsomal CLint at 0.99 µM [1] of 91 µL/min/mg.

With `COCCNS(=O)(=O)Nc1nccc(Cc2cc(C(N)=O)c(Nc3ccc(I)cc3F)cc2F)c1F` [Compound I-4, 4-Fluoro-2-(2-fluoro-4-iodoanilino)-5-[[3-fluoro-2-(2-methoxyethylsulfamoylamino)pyridin-4-yl]methyl]benzamide] the IC50 (BRAF; read-out: BRAF IC50; Table 3) was 4 nM, the IC50 (MEK1) was 275 nM and the microsomal CLint at 0.99 µM [1] was 25 µL/min/mg. The IC50 (NCI-H2122; NCI-H2122, 96 h) was 83 nM.

For `CC1(NS(=O)(=O)Nc2cccc(Cc3cc(C(=O)NC4CC4)c(Nc4ccc(I)cc4F)c(F)c3F)c2F)CCC1` [Compound D-10, N-Cyclopropyl-3,4-difluoro-2-(2-fluoro-4-iodoanilino)-5-[[2-fluoro-3-[(1-methylcyclobutyl)sulfamoylamino]phenyl]methyl]benzamide], the IC50 (BRAF; read-out: BRAF IC50; Table 3) was 34 nM, the IC50 (MEK1) was 261 nM and the microsomal CLint at 0.99 µM [1] was 107 µL/min/mg. For the same compound, the IC50 (NCI-H2122; NCI-H2122, 96 h) was 28 nM.

With `Cn1c(Nc2ccc(I)cc2F)c(C(N)=O)cc(Cc2ccnc(NS(=O)(=O)NC3(C)CCC3)c2F)c1=O` [Compound J-15, 2-(2-Fluoro-4-iodoanilino)-5-[[3-fluoro-2-[(1-methylcyclobutyl)sulfamoylamino]pyridin-4-yl]methyl]-1-methyl-6-oxopyridine-3-carboxamide] the IC50 (BRAF; read-out: BRAF IC50; Table 3) was 12 nM, the IC50 (MEK1) was 56 nM and the microsomal CLint at 0.99 µM [1] was 225 µL/min/mg. For the same compound, the IC50 (NCI-H2122; NCI-H2122, 96 h) was 46 nM.

With `CCNS(=O)(=O)Nc1nccc(Cc2cc(C(N)=O)c(Nc3ccc(I)cc3F)n(C)c2=O)c1F` [Compound J-14, 5-[[2-(ethylsulfamoylamino)-3-fluoropyridin-4-yl]methyl]-2-(2-fluoro-4-iodoanilino)-1-methyl-6-oxopyridine-3-carboxamide] the IC50 (BRAF; read-out: BRAF IC50; Table 3) was 3 nM, the IC50 (MEK1) was 22 nM and the microsomal CLint at 0.99 µM [1] was 34 µL/min/mg. It also gave an IC50 (NCI-H2122; NCI-H2122, 96 h) of 37 nM.

Compound `CNS(=O)(=O)Nc1nccc(Cc2cc(C(N)=O)c(Nc3ccc(C4CC4)cc3F)n(C)c2=O)c1F` [Compound J-3, 2-(4-Cyclopropyl-2-fluoroanilino)-5-[[3-fluoro-2-(methylsulfamoylamino)pyridin-4-yl]methyl]-1-methyl-6-oxopyridine-3-carboxamide] has an IC50 (BRAF; read-out: BRAF IC50; Table 3) of 11 nM, an IC50 (MEK1) of 308 nM and a microsomal CLint at 0.99 µM [1] of 23 µL/min/mg.

In the case of `CNS(=O)(=O)Nc1nccc(Cc2cc(C(=O)NC3CC3)c(Nc3ccc(I)cc3F)c(F)c2F)c1F` [Compound A-2, N-cyclopropyl-3,4-difluoro-2-(2-fluoro-4-iodoanilino)-5-[[3-fluoro-2-(methylsulfamoylamino)pyridin-4-yl]methyl]benzamide], the IC50 (BRAF; read-out: BRAF IC50; Table 3) is reported as 3 nM, the IC50 (MEK1) is reported as 5 nM and the microsomal CLint at 0.99 µM [1] is reported as 25 µL/min/mg.

`NC(=O)c1cc(Cc2ccnc(NS(=O)(=O)NC3C4COCC43)c2F)c(F)c(F)c1Nc1ccc(I)cc1F` (stereo not drawn) [Compound A-22, 3,4-Difluoro-2-(2-fluoro-4-iodoanilino)-5-[[3-fluoro-2-(3-oxabicyclo[3. 1.0]hexan-6-ylsulfamoylamino)pyridin-4-yl]methyl]benzamide] showed an IC50 (A549) of 31 nM, an IC50 (BRAF; Table 3; read-out: BRAF IC50) of 2 nM and an IC50 (MEK1) of 6 nM. The IC50 (NCI-H2122) was 10 nM.

Work on `Cn1c(Nc2ccc(I)cc2F)c(C(N)=O)cc(Cc2ccnc(NS(=O)(=O)NC3CC3)c2F)c1=O` [Compound J-13, 5-[[2-(Cyclopropylsulfamoylamino)-3-fluoropyridin-4-yl]methyl]-2-(2-fluoro-4-iodoanilino)-1-methyl-6-oxopyridine-3-carboxamide] yielded an IC50 (BRAF; read-out: BRAF IC50; Table 3) of 4 nM, an IC50 (MEK1) of 29 nM and a microsomal CLint at 0.99 µM [1] of 39 µL/min/mg. For the same compound, the IC50 (NCI-H2122; NCI-H2122, 96 h) was 80 nM.

Compound `O=C(NOC[C@H](O)CO)c1ccc(F)c(F)c1Nc1ccc(I)cc1F` [Ref-1, N-[(2R)-2,3-Dihydroxypropoxy]-3,4-difluoro-2-(2-fluoro-4-iodoanilino)benzamide, reference compound] has a microsomal CLint at 0.99 µM [1] of 20 µL/min/mg.

`CNS(=O)(=O)Nc1nccc(Cc2cc(C(=O)NC3CC3)c(Nc3ccc(C4CC4)cc3F)c(F)c2F)c1F` [Compound G-1, N-Cyclopropyl-2-(4-cyclopropyl-2-fluoroanilino)-3,4-difluoro-5-[[3-fluoro-2-(methylsulfamoylamino)pyridin-4-yl]methyl]benzamide] gave an IC50 (BRAF; read-out: BRAF IC50; Table 3) of 12 nM, an IC50 (MEK1) of 222 nM and a microsomal CLint at 0.99 µM [1] of 32 µL/min/mg.

For `CCS(=O)(=O)Nc1nccc(Cn2cc(C(N)=O)c(Nc3ccc(I)cc3F)c(C)c2=O)c1F` [Compound P-2, 1-[[2-(Ethylsulfonylamino)-3-fluoropyridin-4-yl]methyl]-4-(2-fluoro-4-iodoanilino)-5-methyl-6-oxopyridine-3-carboxamide], the IC50 (MEK1) was 8 nM and the microsomal CLint at 0.99 µM [1] was 3 µL/min/mg.

In the case of `CC1(NS(=O)(=O)Nc2nccc(Cc3cc(C(=O)NC4CC4)c(Nc4ccc(I)cc4F)c(F)c3F)c2F)CCC1` [Compound A-47, N-Cyclopropyl-3,4-difluoro-2-(2-fluoro-4-iodoanilino)-5-[[3-fluoro-2-[(1-methylcyclobutyl)sulfamoylamino]pyridin-4-yl]methyl]benzamide], the IC50 (BRAF; read-out: BRAF IC50; Table 3) is reported as 21 nM, the IC50 (MEK1) is reported as 39 nM and the microsomal CLint at 0.99 µM [1] is reported as 38 µL/min/mg. For the same compound, the IC50 (NCI-H2122; NCI-H2122, 96 h) was 17 nM.

For `CCS(=O)(=O)Nc1nccc(Cc2cc(C(=O)NC3CC3)c(Nc3ccc(C4CC4)cc3F)c(F)c2F)c1F` [Compound G-7, N-Cyclopropyl-2-(4-cyclopropyl-2-fluoroanilino)-5-[[2-(ethylsulfonylamino)-3-fluoropyridin-4-yl]methyl]-3,4-difluorobenzamide], the IC50 (BRAF; read-out: BRAF IC50; Table 3) was 46 nM, the IC50 (MEK1) was 2470 nM and the microsomal CLint at 0.99 µM [1] was 21 µL/min/mg. It also gave an IC50 (NCI-H2122; NCI-H2122, 96 h) of 75 nM.

In the case of `COCCNS(=O)(=O)Nc1nccc(Cc2cc(C(N)=O)c(Nc3ccc(I)cc3F)n(C)c2=O)c1F` [Compound J-2, 2-(2-Fluoro-4-iodoanilino)-5-[[3-fluoro-2-(2-methoxyethylsulfamoylamino)pyridin-4-yl]methyl]-1-methyl-6-oxopyridine-3-carboxamide], the IC50 (BRAF; read-out: BRAF IC50; Table 3) is reported as 11 nM, the IC50 (MEK1) is reported as 495 nM and the microsomal CLint at 0.99 µM [1] is reported as 16 µL/min/mg. For the same compound, the IC50 (NCI-H2122; NCI-H2122, 96 h) was 130 nM.

With `CCS(=O)(=O)Nc1cc(Cc2cc(C(N)=O)c(Nc3ccc(I)cc3F)n(C)c2=O)ccn1` [Compound J-12, 5-[[2-(Ethylsulfonylamino)pyridin-4-yl]methyl]-2-(2-fluoro-4-iodoanilino)-1-methyl-6-oxopyridine-3-carboxamide] the IC50 (MEK1) was 2290 nM, the microsomal CLint at 0.99 µM [1] was 19 µL/min/mg and the IC50 (NCI-H2122; NCI-H2122, 96 h) was 180 nM.

With `CCNS(=O)(=O)Nc1nccc(Cc2cc(C(=O)NOCCO)c(Nc3ccc(I)cc3F)c(F)c2F)c1F` [Compound A-44, 5-[[2-(Ethylsulfamoylamino)-3-fluoropyridin-4-yl]methyl]-3,4-difluoro-2-(2-fluoro-4-iodoanilino)-N-(2-hydroxyethoxy)benzamide] the IC50 (BRAF; Table 3; read-out: BRAF IC50) was 19 nM, the IC50 (MEK1) was 2 nM and the IC50 (NCI-H2122; NCI-H2122, 96 h) was 1 nM.

In the case of `CCCNS(=O)(=O)Nc1nccc(Cc2cc(C(=O)NOCCO)c(Nc3ccc(I)cc3F)c(F)c2F)c1F` [Compound A-45, 3,4-Difluoro-2-(2-fluoro-4-iodoanilino)-5-[[3-fluoro-2-(propylsulfamoylamino)pyridin-4-yl]methyl]-N-(2-hydroxyethoxy)benzamide], the IC50 (A549; A549, 96 h) is reported as 5 nM, the IC50 (BRAF; read-out: BRAF IC50; Table 3) is reported as 6 nM and the IC50 (MEK1) is reported as 2 nM. The IC50 (NCI-H2122; NCI-H2122, 96 h) was 1 nM.

With `Cc1c(Nc2ccc(I)cc2F)c(C(N)=O)cn(Cc2ccnc(NS(=O)(=O)NC3(C)CCC3)c2F)c1=O` [Compound P-3, 4-(2-Fluoro-4-iodoanilino)-1-[[3-fluoro-2-[(1-methylcyclobutyl)sulfamoylamino]pyridin-4-yl]methyl]-5-methyl-6-oxopyridine-3-carboxamide] the IC50 (BRAF; read-out: BRAF IC50; Table 3) was 10 nM, the IC50 (MEK1) was 3 nM and the microsomal CLint at 0.99 µM [1] was 37 µL/min/mg. For the same compound, the IC50 (NCI-H2122; NCI-H2122, 96 h) was 96 nM.
